Reference: US6770673B1, “Therapeutic uses of arglabin in combination with other chemotherapy agents” (priority 1997, dated 2004)

Legend:
Pliss lymphosarcoma = assay: Inhibition of tumor growth in implanted tumors; type: in vivo, rats
Geren's carcinosarcoma = assay: Inhibition of tumor growth in implanted tumors; type: in vivo, mice and rats
[1] = test system: Sarcoma-45 resistant to 5-fluorouracil; assay: Inhibition of growth of resistant tumour strains; type: in vivo, rats
[2] = test system: Pliss Lymphosarcoma resistant to prospidine; assay: Inhibition of growth of resistant tumour strains; duration of life and metastasis; type: in vivo, rats
Worker's carcinosarcoma = assay: Inhibition of tumor growth in implanted tumors; type: in vivo, mice and rats
Sarcoma-45 = assay: Inhibition of tumor growth in implanted tumors; type: in vivo, rats
[3] = test system: Alveolar Cancer of the liver; assay: Inhibition of tumor growth in implanted tumors; type: in vivo, mice and rats
Leucemia P-388 = assay: Implanted leukemia, inhibition / survival; type: in vivo, mice and rats
Sarcoma-37 = assay: Inhibition of tumor growth in implanted tumors; type: in vivo, mice and rats; conditions: dose 2 mg/kg
M-1 Sarcoma = assay: Inhibition of tumor growth in implanted tumors; type: in vivo, mice and rats
[4] = test system: Pliss Lymphosarcoma resistant to leucoeffdine; assay: Inhibition of growth of resistant tumour strains; tumor disappearance; type: in vivo, rats; conditions: leukofedin resistant Pliss' lymphosarcoma, collateral sensitivity
PC-1 = assay: Inhibition of tumor growth in implanted tumors; type: in vivo, mice and rats; conditions: dose 30 mg/kg
L-1210 = assay: Implanted leukemia, survival; type: in vivo, mice and rats; conditions: dose 30 mg/kg
[5] = test system: Sarcoma-45 resistant to sarcolysin; assay: Inhibition of growth of resistant tumour strains; type: in vivo, rats; conditions: dose 30 mg/kg
[6] = test system: Pliss Lymphosarcoma resistant to rubidomycin; assay: Inhibition of growth of resistant tumour strains; type: in vivo, rats; conditions: dose 30 mg/kg
immune system = assay: Indices of patients' immunity, rozette forming and phagocytosis methods (Table X); type: in vivo, human
Method: The indices of immune system were determined using rozette forming and phagocytosis methods. […] Eleven indices of cellular and humoral immunity were measured from each patient in order to evaluate immune status. The following indices were determined on 0.05 ml of peripheral blood: absolute and relative amount of T- and B-lymphocytes, amount of non-differentiated “zero” cells, adhesion and phagocyte activity of neutrophils, hemogram, level of serum immunoglobulins. Indices were determined before treatment, on days 2, 5 and 14 of treatment, and after treatment.
Mean values of immunological indices were evaluated with regression analysis. Functional conditions of the immune system were estimated using integral indices such as a mean intensity (correlation) expressed in relative units.

## C=C1C(=O)OC2C1CCC(C)(O)C1C3OC3C(C)(O)C21 (stereo not drawn) [Anobin (19), 2α,3α-epoxy-4α,10α-dioxy-5,7α(H), 60β(H)-guai-11(13)-en-6,12-olide]
Pliss lymphosarcoma; dose 20-30 mg/kg
  Inhibition of Tumour Growth, % - Pliss lymphosarcoma: 60.0%
Geren's carcinosarcoma; dose 20-30 mg/kg
  Inhibition of Tumour Growth, % - Geren's carcinosarcoma: 85%
[1]; dose 20-30 mg/kg
  Inhibition of Tumour Strains Growth, % - Resistant Forms - Sarcoma-45 to 5-fluorouracil: 13.2%
[2]; dose 20-30 mg/kg
  Inhibition of Tumour Strains Growth, % - Resistant Forms - Pliss Lymphosarcoma to prospidine: 95%

## C=C1C(=O)OC2C1CCC(C)(Cl)C1(O)CC(Cl)C(C)(O)C21 (stereo not shown) [Dichlordihydroxyarglabin (3)]
Pliss lymphosarcoma; dose 50 mg/kg
  Inhibition of Tumour Growth, % - Pliss lymphosarcoma: 29.0%
Worker's carcinosarcoma; dose 50 mg/kg
  Inhibition of Tumour Growth, % - Worker's carcinosarcoma: 63.2%
Geren's carcinosarcoma; dose 50 mg/kg
  Inhibition of Tumour Growth, % - Geren's carcinosarcoma: 71.4%
Sarcoma-45; dose 50 mg/kg
  Inhibition of Tumour Growth, % - Sarcoma-45: 70.9%
[3]; dose 50 mg/kg
  Inhibition of Tumour Growth, % - Alveolar Cancer of the liver: 51.0%
Leucemia P-388; dose 50 mg/kg
  Inhibition of Tumour Growth, % - Leucemia P-388 PALT: 92.1%
[1]; dose 50 mg/kg
  Inhibition of Tumour Strains Growth, % - Resistant Forms - Sarcoma-45 to 5-fluorouracil: 70.6%

## COc1cc2c(c(OC)c1OC)-c1ccc(OC)c(=O)cc1[C@@H](NC(C)=O)CC2 [Colchicine, colchicine, reference compound]
Pliss lymphosarcoma; dose 2 mg/kg
  Inhibition of Tumour Growth, % - Pliss lymphosarcoma: 54.4%
Worker's carcinosarcoma; dose 2 mg/kg
  Inhibition of Tumour Growth, % - Worker's carcinosarcoma: 30.1%
Geren's carcinosarcoma; dose 2 mg/kg
  Inhibition of Tumour Growth, % - Geren's carcinosarcoma: 32.4%
Sarcoma-45; dose 2 mg/kg
  Inhibition of Tumour Growth, % - Sarcoma-45: 23.4%
Sarcoma-37
  Inhibition of Tumour Growth, % - Sarcoma-37: 36.7%
M-1 Sarcoma; dose 2 mg/kg
  Inhibition of Tumour Growth, % - M-1 Sarcoma: 14.9%
[3]; dose 2 mg/kg
  Inhibition of Tumour Growth, % - Alveolar Cancer of the liver: 29.1%
Leucemia P-388; dose 2 mg/kg
  Inhibition of Tumour Growth, % - Leucemia P-388 PALT: 31.2%

## NC(Cc1ccc(N(CCCl)CCCl)cc1)C(=O)O (stereo not shown) [sarcolysin, reference compound]
[4]
  rats with complete disappearance of the tumor: 60%

## CC1=CCC23OC2(C)CCC2C(CN(C)C)C(=O)OC2C13 (stereo not shown) [Dimethylaminoarglabin (14b), dimethylaminoarglabin]
Pliss lymphosarcoma; dose 30 mg/kg
  Inhibition of Tumour Growth, % - Pliss lymphosarcoma: 78.2%
Pliss lymphosarcoma; dose 50 mg/kg
  Inhibition of Tumour Growth, % - Pliss lymphosarcoma: 56.0%
Worker's carcinosarcoma; dose 30 mg/kg
  Inhibition of Tumour Growth, % - Worker's carcinosarcoma: 30.0%
Worker's carcinosarcoma; dose 50 mg/kg
  Inhibition of Tumour Growth, % - Worker's carcinosarcoma: 30.0%
Geren's carcinosarcoma; dose 50 mg/kg
  Inhibition of Tumour Growth, % - Geren's carcinosarcoma: 85.1%
Sarcoma-45; dose 30 mg/kg
  Inhibition of Tumour Growth, % - Sarcoma-45: 85.1%
Sarcoma-45; dose 50 mg/kg
  Inhibition of Tumour Growth, % - Sarcoma-45: 79.0%
M-1 Sarcoma; dose 30 mg/kg
  Inhibition of Tumour Growth, % - M-1 Sarcoma: 79.9%
[3]; dose 50 mg/kg
  Inhibition of Tumour Growth, % - Alveolar Cancer of the liver: 42.0%
Leucemia P-388; dose 50 mg/kg
  Inhibition of Tumour Growth, % - Leucemia P-388 PALT: 80.1%
PC-1
  Inhibition of Tumour Growth, % - PC-1: 62.1%
[1]; dose 50 mg/kg
  Inhibition of Tumour Strains Growth, % - Resistant Forms - Sarcoma-45 to 5-fluorouracil: 52.1%
[2]; dose 30 mg/kg
  Inhibition of Tumour Strains Growth, % - Resistant Forms - Pliss Lymphosarcoma to prospidine: 52.1%

## CN(C)CC1C(=O)OC2C1CCC1(C)OC13CC1OC1(C)C23 (stereo not shown) [Dimethylaminoepoxyarglabin (15b), dimethylaminoepoxyarglabin]
Pliss lymphosarcoma; dose 50 mg/kg
  Inhibition of Tumour Growth, % - Pliss lymphosarcoma: 64.6%
Worker's carcinosarcoma; dose 50 mg/kg
  Inhibition of Tumour Growth, % - Worker's carcinosarcoma: 43.1%
Geren's carcinosarcoma; dose 50 mg/kg
  Inhibition of Tumour Growth, % - Geren's carcinosarcoma: 31.4%
Sarcoma-45; dose 50 mg/kg
  Inhibition of Tumour Growth, % - Sarcoma-45: 58.1%
[3]; dose 50 mg/kg
  Inhibition of Tumour Growth, % - Alveolar Cancer of the liver: 38.0%
Leucemia P-388; dose 50 mg/kg
  Inhibition of Tumour Growth, % - Leucemia P-388 PALT: 51.0%
[1]; dose 50 mg/kg
  Inhibition of Tumour Strains Growth, % - Resistant Forms - Sarcoma-45 to 5-fluorouracil: 11.2%

## CN(C)CC1C(=O)OC2C1CCC1(C)OC13CC1OC1(C)C23.Cl (stereo not shown) [dimethylaminoepoxyarglabin hydrochloride]
Pliss lymphosarcoma; dose 50 mg/kg
  Inhibition of Tumour Growth, % - Pliss lymphosarcoma: 47.0%
Worker's carcinosarcoma; dose 50 mg/kg
  Inhibition of Tumour Growth, % - Worker's carcinosarcoma: 51.4%
Geren's carcinosarcoma; dose 50 mg/kg
  Inhibition of Tumour Growth, % - Geren's carcinosarcoma: 15.6%
Sarcoma-45; dose 50 mg/kg
  Inhibition of Tumour Growth, % - Sarcoma-45: 32.4%
[3]; dose 50 mg/kg
  Inhibition of Tumour Growth, % - Alveolar Cancer of the liver: 29.1%
Leucemia P-388; dose 50 mg/kg
  Inhibition of Tumour Growth, % - Leucemia P-388 PALT: 31.2%
[1]; dose 50 mg/kg
  Inhibition of Tumour Strains Growth, % - Resistant Forms - Sarcoma-45 to 5-fluorouracil: 13.2%

## CC1=CCC23OC2(C)CCC2C(C)C(=O)OC2C13 (stereo not shown) [11,13-dihydroarglabin (16), 11,13 dihydroarglabin]
Pliss lymphosarcoma; dose 30 mg/kg
  Inhibition of Tumour Growth, % - Pliss lymphosarcoma: 68.0%
Worker's carcinosarcoma; dose 30 mg/kg
  Inhibition of Tumour Growth, % - Worker's carcinosarcoma: 46.4%
Geren's carcinosarcoma; dose 30 mg/kg
  Inhibition of Tumour Growth, % - Geren's carcinosarcoma: 84.4%
Sarcoma-45; dose 30 mg/kg
  Inhibition of Tumour Growth, % - Sarcoma-45: 64.1%
M-1 Sarcoma; dose 30 mg/kg
  Inhibition of Tumour Growth, % - M-1 Sarcoma: 65.5%
[3]; dose 30 mg/kg
  Inhibition of Tumour Growth, % - Alveolar Cancer of the liver: 68.7%

## C=C1C(=O)O[C@@H]2[C@H]3C(C)=CC[C@@]34O[C@@]4(C)CC[C@@H]12 [Arglabin (1), 1(R), 10(S)-epoxy-5(S), 6(S), 7(S)-guaia-3(4), 11(13)-diene-6,12-olide]
Pliss lymphosarcoma; dose 30 mg/kg
  Inhibition of Tumour Growth, % - Pliss lymphosarcoma: 57.6%
Worker's carcinosarcoma; dose 30 mg/kg
  Inhibition of Tumour Growth, % - Worker's carcinosarcoma: 41.1%
Geren's carcinosarcoma; dose 30 mg/kg
  Inhibition of Tumour Growth, % - Geren's carcinosarcoma: 48.0%
Sarcoma-45; dose 30 mg/kg
  Inhibition of Tumour Growth, % - Sarcoma-45: 23.0%
M-1 Sarcoma; dose 30 mg/kg
  Inhibition of Tumour Growth, % - M-1 Sarcoma: 55.6%
[3]; dose 30 mg/kg
  Inhibition of Tumour Growth, % - Alveolar Cancer of the liver: 32.1%
Leucemia P-388; dose 30 mg/kg
  Leucemia P-388 PALT - increase in survival: +43.0%
PC-1
  Inhibition of Tumour Growth, % - PC-1: 32.1%
L-1210
  L-1210 - increase in survival: +34.1%
[5]
  Inhibition of Tumour Strains Growth, % - Resistant Forms - Sarcoma-45 to sarcolysin: 59.7%
[6]
  Inhibition of Tumour Strains Growth, % - Resistant Forms - Pliss Lymphosarcoma to rubidomycin: 44.1%
[2]; dose 30 mg/kg
  Inhibition of Tumour Strains Growth, % - Resistant Forms - Pliss Lymphosarcoma to prospidine: 31.0%
Immune system; human, in vivo
  Adhesion, N/ph: 42.40 ± 1.72
  Non differentiated lymphocytes, %: 26.00 ± 2.21%
  T-lymphocytes, %: 52.00 ± 1.42%
Immune system; patients, hemogram, after treatment (before treatment 2.72 ± 0.71)
  Eosinophil: 3.35 ± 1.30
Immune system; patients, hemogram, after treatment (before treatment 4.72 ± 0.91)
  Neutrophils, %: 5.45 ± 0.79%
Immune system; patients, hemogram, after treatment (before treatment 5.28 ± 2.48)
  Monocytes: 4.45 ± 0.44
Immune system; patients, hemogram, after treatment (before treatment 25.52 ± 2.02)
  Lymphocytes: 23.15 ± 1.7
Immune system; patients, hemogram, after treatment (before treatment 61.68 ± 45.0)
  Segmentation nucleus: 63.05 ± 1.79
Immune system; patients, peripheral blood, after treatment (before treatment 0.29 ± 0.05)
  B-lymphocytes, absolute: 0.45 ± 0.07
Immune system; patients, peripheral blood, after treatment (before treatment 0.72 ± 0.08)
  T-lymphocytes, absolute: 1.14 ± 0.17
Immune system; patients, peripheral blood, after treatment (before treatment 1.69 ± 0.26)
  D-phag, abs: 2.32 ± 0.19
Immune system; patients, peripheral blood, after treatment (before treatment 5.97 ± 0.60)
  Leukocytes, 10^9/l: 9.14 ± 0.61 10^9/l
Immune system; patients, peripheral blood, after treatment (before treatment 10.48 ± 1.60)
  T suppressor, %: 10.50 ± 0.95%
Immune system; patients, peripheral blood, after treatment (before treatment 19.12 ± 1.02)
  B-lymphocytes, %: 18.50 ± 10.0%
Immune system; patients, peripheral blood, after treatment (before treatment 39.12 ± 1.25)
  T helper cells, %: 45.30 ± 1.26%
Immune system; patients, peripheral blood, after treatment (before treatment 41.36 ± 0.95)
  D-phag., %: 48.1 ± 0.93%
Immune system; patients, serum, after treatment (before treatment 1.36 ± 0.03)
  Immunoglobulins M: 1.53 ± 0.03 g/L
Immune system; patients, serum, after treatment (before treatment 1.48 ± 0.02)
  Immunoglobulins A: 1.97 ± 0.08 g/L
Immune system; patients, serum, after treatment (before treatment 14.33 ± 0.43)
  Immunoglobulins G: 17.91 ± 0.41 g/L

## C=C1C(=O)OC2C1CCC1(C)OC13CC(Br)C(C)(Br)C23 (stereo not shown) [Dibromoarglabin (5), 3,4 Dibromoarglabin]
Pliss lymphosarcoma; dose 50 mg/kg
  Inhibition of Tumour Growth, % - Pliss lymphosarcoma: 51.0%
Worker's carcinosarcoma; dose 50 mg/kg
  Inhibition of Tumour Growth, % - Worker's carcinosarcoma: 17.1%
Geren's carcinosarcoma; dose 50 mg/kg
  Inhibition of Tumour Growth, % - Geren's carcinosarcoma: 90.0%
Sarcoma-45; dose 50 mg/kg
  Inhibition of Tumour Growth, % - Sarcoma-45: 74.2%
[3]; dose 50 mg/kg
  Inhibition of Tumour Growth, % - Alveolar Cancer of the liver: 69.0%
Leucemia P-388; dose 50 mg/kg
  Inhibition of Tumour Growth, % - Leucemia P-388 PALT: 46.9%
[1]; dose 50 mg/kg
  Inhibition of Tumour Strains Growth, % - Resistant Forms - Sarcoma-45 to 5-fluorouracil: 46.3%
